From patent US20230114728A1 (Venatorx Pharmaceuticals, Inc., priority 2019, published 2023)
In brackets after ≈: the same amount, converted by molar mass.

Assays:
P. aeruginosa PBP3 = biological target: T1, P. aeruginosa PBP3 (Pseudomonas aeruginosa, UniProt G3XD46); test: Bocillin-FL fluorescence polarization competition binding assay, P. aeruginosa PBP3; settings: fluorescence polarization competition binding assay using Bocillin-FL
T1 construct: made in house
Procedure, shortened: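 Inhibitor competition with Bocillin-FL for P. aeruginosa PBP3 was followed by fluorescence polarization on a Cytation3 (BioTek) reader, using g-factor 0.96, 490 nm excitation and 520 nm emission. The enzyme was at 0.75 μM and the probe at 0.1 μM in Hepes/NaCl/glycerol buffer, 80 μl per well. FP was recorded immediately after probe addition for up to 60 minutes. Potency was expressed as EC50, the concentration that reduces bound probe by 50%.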

[1] = tested on: K. pneumoniae SI-117 producing VIM-1; test: Broth microdilution MIC in CAMHB; format: cell-based; settings: Klebsiella pneumoniae, read-out: Minimum Inhibitory Concentration, K. pneumoniae SI-117
Procedure, shortened: (§1)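 Hyper-permeable or efflux-deficient strains serve to probe outer-membrane penetration. Growth inhibition is scored visually after 16-20 h at 37° C in CAMHB, starting from 2-8×10^5 CFU/mL.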

E. coli AG100A = test: Broth microdilution MIC in CAMHB; format: cell-based; settings: Escherichia coli, read-out: Minimum Inhibitory Concentration, E. coli AG100A
Procedure, shortened: as §1

P. aeruginosa ATCC 27853 = test: Broth microdilution MIC in CAMHB; format: cell-based; settings: Pseudomonas aeruginosa, ATCC27853; MHB; read-out: Minimum Inhibitory Concentration, P. aeruginosa ATCC 27853
Procedure, shortened: as §1

P. aeruginosa ATCC 35151 = test: Broth microdilution MIC in CAMHB; format: cell-based; settings: Pseudomonas aeruginosa, ATCC35151; MHB; hyper-permeable strain; read-out: Minimum Inhibitory Concentration, P. aeruginosa ATCC 35151
Procedure, shortened: as §1

T1 sequence (G3XD46 whole entry): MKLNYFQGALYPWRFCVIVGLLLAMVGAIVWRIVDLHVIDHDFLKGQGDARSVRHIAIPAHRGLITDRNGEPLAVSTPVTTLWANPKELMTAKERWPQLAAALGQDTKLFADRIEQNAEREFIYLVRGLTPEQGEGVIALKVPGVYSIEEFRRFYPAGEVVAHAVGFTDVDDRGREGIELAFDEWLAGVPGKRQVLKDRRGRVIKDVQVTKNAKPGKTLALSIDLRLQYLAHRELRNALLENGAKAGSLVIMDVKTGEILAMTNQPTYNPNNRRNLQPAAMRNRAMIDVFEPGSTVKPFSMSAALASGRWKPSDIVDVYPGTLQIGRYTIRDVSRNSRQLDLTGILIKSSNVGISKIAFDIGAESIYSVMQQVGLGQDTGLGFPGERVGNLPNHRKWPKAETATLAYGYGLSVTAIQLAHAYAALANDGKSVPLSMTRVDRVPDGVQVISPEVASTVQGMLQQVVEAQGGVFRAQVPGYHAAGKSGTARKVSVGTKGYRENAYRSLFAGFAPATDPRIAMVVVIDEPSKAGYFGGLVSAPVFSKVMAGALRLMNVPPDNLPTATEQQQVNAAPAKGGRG

Structure (SMILES)	P. aeruginosa PBP3 Potency (P. aeruginosa PBP3)	MIC [1] [µg/mL]	MIC (E. coli AG100A) [µg/mL]	MIC (P. aeruginosa ATCC 27853) [µg/mL]	MIC (P. aeruginosa ATCC 35151) [µg/mL]
CCN1CCN(C(=O)NC(C(=O)N[C@H]2Cc3cccc(C(=O)O)c3OB2O)c2cccc(NC(=O)c3cncnc3)c2)C(=O)C1=O (stereo partly drawn) [Example 96, (3R)-3-(2-(4-ethyl-2,3-dioxopiperazine-1-carboxamido)-2-(3-(pyrimidine-5-carboxamido)phenyl)acetamido)-2-hydroxy-3,4-dihydro-2H-benzo[e][1,2]oxaborinine-8-carboxylic acid]	D (D represents a potency <10 μM)	> 128	8 to 16 (≈ 12.7 to 25.4 µM)	> 128	2 to 4 (≈ 3.18 to 6.36 µM)
NCCCN1CCN(C(=O)NC(C(=O)N[C@H]2Cc3cccc(C(=O)O)c3OB2O)c2ccc(C(N)=O)c(O)c2)C(=O)C1=O (stereo partly drawn) [Example 47, (3R)-3-(2-(4-(3-aminopropyl)-2,3-dioxopiperazine-1-carboxamido)-2-(4-carbamoyl-3-hydroxyphenyl)acetamido)-2-hydroxy-3,4-dihydro-2H-benzo[e][1,2]oxaborinine-8-carboxylic acid]	D (D represents a potency <10 μM)	> 128	2 to 4 (≈ 3.35 to 6.71 µM)	32 to 64 (≈ 53.7 to 107 µM)	< 0.25
CCN1CCN(C(=O)NC(C(=O)N[C@H]2Cc3cccc(C(=O)O)c3OB2O)c2cc(O)cc(O)c2)C(=O)C1=O (mixture of isomers) [Example 79, (3R)-3-(2-(3,5-dihydroxyphenyl)-2-(4-ethyl-2,3-dioxopiperazine-1-carboxamido)acetamido)-2-hydroxy-3,4-dihydro-2H-benzo[e][1,2]oxaborinine-8-carboxylic acid]	D (D represents a potency <10 μM)	32 to 64	2 to 4	> 128	0.5 to 1
N=C(N)NCCN1CCN(C(=O)NC(C(=O)N[C@H]2Cc3ccc(F)c(C(=O)O)c3OB2O)c2ncc(O)cc2F)C(=O)C1=O (stereo partly drawn) [Example 51, (3R)-7-fluoro-3-(2-(3-fluoro-5-hydroxypyridin-2-yl)-2-(4-(2-guanidinoethyl)-2,3-dioxopiperazine-1-carboxamido)acetamido)-2-hydroxy-3,4-dihydro-2H-benzo[e][1,2]oxaborinine-8-carboxylic acid]	D (D represents a potency <10 μM)	32 to 64 (≈ 51.8 to 104 µM)	8 to 16 (≈ 12.9 to 25.9 µM)	> 128	0.5 to 1 (≈ 0.809 to 1.62 µM)
NS(=O)(=O)NC(C(=O)N[C@H]1Cc2cccc(C(=O)O)c2OB1O)c1ccc(C(=O)O)c(F)c1 (stereo partly drawn) [Example 44, (3R)-3-(2-(4-carboxy-3-fluorophenyl)-2-(sulfamoylamino)acetamido)-2-hydroxy-3,4-dihydro-2H-benzo[e][1,2]oxaborinine-8-carboxylic acid]	C (C represents a potency between 10 and 30 μM)	> 128	> 128	> 128	32 to 64 (≈ 66.5 to 133 µM)
N=C(N)NCCN1CCN(C(=O)NC(C(=O)N[C@H]2Cc3ccc(F)c(C(=O)O)c3OB2O)c2ccc(C(=O)O)c(F)c2)C(=O)C1=O (stereo partly drawn) [Example 78, (3R)-3-(2-(4-carboxy-3-fluorophenyl)-2-(4-(2-guanidinoethyl)-2,3-dioxopiperazine-1-carboxamido)acetamido)-7-fluoro-2-hydroxy-3,4-dihydro-2H-benzo[e][1,2]oxaborinine-8-carboxylic acid]	D (D represents a potency <10 μM)	> 128	> 128	32 to 64 (≈ 49.6 to 99.2 µM)	0.5 to 1 (≈ 0.775 to 1.55 µM)
CCN1CCN(C(=O)NC(C(=O)N[C@H]2Cc3cccc(C(=O)O)c3OB2O)c2cccc(NC(=O)c3cccnc3)c2)C(=O)C1=O (stereo partly drawn) [Example 97, (3R)-3-(2-(4-ethyl-2,3-dioxopiperazine-1-carboxamido)-2-(3-(nicotinamido)phenyl)acetamido)-2-hydroxy-3,4-dihydro-2H-benzo[e][1,2]oxaborinine-8-carboxylic acid]	D (D represents a potency <10 μM)	> 128	8 to 16 (≈ 12.7 to 25.5 µM)	> 128	8 to 16 (≈ 12.7 to 25.5 µM)
CCN1CCN(C(=O)NC(C(=O)N[C@H]2Cc3cccc(C(=O)O)c3OB2O)c2ccc(C(=O)O)c(F)c2)C(=O)C1=O (stereo partly drawn) [Example 31, (3R)-3-(2-(4-carboxy-3-fluorophenyl)-2-(4-ethyl-2,3-dioxopiperazine-1-carboxamido)acetamido)-2-hydroxy-3,4-dihydro-2H-benzo[e][1,2]oxaborinine-8-carboxylic acid]	D (D represents a potency <10 μM)	> 128	2 to 4 (≈ 3.51 to 7.01 µM)	32 to 64 (≈ 56.1 to 112 µM)	< 0.25
CCN1CCN(C(=O)NC(C(=O)N[C@H]2Cc3cccc(C(=O)O)c3OB2O)c2ccc(O)cc2O)C(=O)C1=O (stereo partly drawn) [Example 69, (3R)-3-(2-(2,4-dihydroxyphenyl)-2-(4-ethyl-2,3-dioxopiperazine-1-carboxamido)acetamido)-2-hydroxy-3,4-dihydro-2H-benzo[e][1,2]oxaborinine-8-carboxylic acid]	C (C represents a potency between 10 and 30 μM)	32 to 64 (≈ 59.2 to 118 µM)	2 to 4 (≈ 3.7 to 7.4 µM)	> 128	8 to 16 (≈ 14.8 to 29.6 µM)
CCN1CCN(C(=O)NC(C(=O)N[C@H]2Cc3cccc(C(=O)O)c3OB2O)c2c(F)cc(O)cc2Cl)C(=O)C1=O (stereo partly drawn) [Example 95, (3R)-3-(2-(2-chloro-6-fluoro-4-hydroxyphenyl)-2-(4-ethyl-2,3-dioxopiperazine-1-carboxamido)acetamido)-2-hydroxy-3,4-dihydro-2H-benzo[e][1,2]oxaborinine-8-carboxylic acid]	D (D represents a potency <10 μM)	32 to 64 (≈ 55.5 to 111 µM)	0.5 to 1 (≈ 0.867 to 1.73 µM)	> 128	2 to 4 (≈ 3.47 to 6.94 µM)
NCCN1CCN(C(=O)NC(C(=O)N[C@H]2Cc3ccc(F)c(C(=O)O)c3OB2O)c2nc(N)sc2F)C(=O)C1=O (stereo partly drawn) [Example 24, (3R)-3-(2-(2-amino-5-fluorothiazol-4-yl)-2-(4-(2-aminoethyl)-2,3-dioxopiperazine-1-carboxamido)acetamido)-7-fluoro-2-hydroxy-3,4-dihydro-2H-benzo[e][1,2]oxaborinine-8-carboxylic acid]	B (B represents a potency between 30 μM and 500 μM inclusive)	32 to 64 (≈ 55 to 110 µM)	8 to 16 (≈ 13.8 to 27.5 µM)	> 128	2 to 4 (≈ 3.44 to 6.88 µM)
CCN1CCN(C(=O)NC(C(=O)N[C@H]2Cc3cccc(C(=O)O)c3OB2O)c2cccc(NS(N)(=O)=O)c2)C(=O)C1=O (stereo partly drawn) [Example 98, (3R)-3-(2-(4-ethyl-2,3-dioxopiperazine-1-carboxamido)-2-(3-(sulfamoylamino)phenyl)acetamido)-2-hydroxy-3,4-dihydro-2H-benzo[e][1,2]oxaborinine-8-carboxylic acid]	D (D represents a potency <10 μM)	32 to 64 (≈ 53.1 to 106 µM)	0.5 to 1 (≈ 0.83 to 1.66 µM)	> 128	0.5 to 1 (≈ 0.83 to 1.66 µM)
CCN1CCN(C(=O)NC(C(=O)N[C@H]2Cc3cccc(C(=O)O)c3OB2O)c2cccc(S(N)(=O)=O)c2)C(=O)C1=O (stereo partly drawn) [Example 99, (3R)-3-(2-(4-ethyl-2,3-dioxopiperazine-1-carboxamido)-2-(3-sulfamoylphenyl)acetamido)-2-hydroxy-3,4-dihydro-2H-benzo[e][1,2]oxaborinine-8-carboxylic acid]	D (D represents a potency <10 μM)	32 to 64 (≈ 54.5 to 109 µM)	2 to 4 (≈ 3.4 to 6.81 µM)	> 128	2 to 4 (≈ 3.4 to 6.81 µM)
CCN1CCN(C(=O)NC(C(=O)N[C@H]2Cc3cccc(C(=O)O)c3OB2O)c2cccc(NS(C)(=O)=O)c2)C(=O)C1=O (stereo partly drawn) [Example 76, (3R)-3-(2-(4-ethyl-2,3-dioxopiperazine-1-carboxamido)-2-(3-(methylsulfonamido)phenyl)acetamido)-2-hydroxy-3,4-dihydro-2H-benzo[e][1,2]oxaborinine-8-carboxylic acid]	D (D represents a potency <10 μM)	> 128	2 to 4 (≈ 3.33 to 6.65 µM)	> 128	2 to 4 (≈ 3.33 to 6.65 µM)
CCN1CCN(C(=O)NC(C(=O)N[C@H]2Cc3cccc(C(=O)O)c3OB2O)c2ccc(C(N)=O)c(O)c2)C(=O)C1=O (stereo partly drawn) [Example 45, (3R)-3-(2-(4-carbamoyl-3-hydroxyphenyl)-2-(4-ethyl-2,3-dioxopiperazine-1-carboxamido)acetamido)-2-hydroxy-3,4-dihydro-2H-benzo[e][1,2]oxaborinine-8-carboxylic acid]	D (D represents a potency <10 μM)	> 128	2 to 4 (≈ 3.53 to 7.05 µM)	> 128	< 0.25
CCN1CCN(C(=O)N[C@H](C(=O)N[C@H]2Cc3cccc(C(=O)O)c3OB2O)c2cc(O)cc(O)c2)C(=O)C1=O (single isomer, unassigned) [Example 81]	B (B represents a potency between 30 μM and 500 μM inclusive)	> 128	8 to 16 (≈ 14.8 to 29.6 µM)	> 128	2 to 4 (≈ 3.7 to 7.4 µM)
